The results in this text go back to patent publication US7129346B2, “Crown ether derivatives” (Molecular Probes, Inc., priority 2000, dated 2006).

“Also recorded” adds a separate entry of the source.

The nature of test [1]: Indicator fluorescence response titration, dissociation constant for Zn2+. Format: binding. As to conditions: Table 1, Formula (I) compounds; approximate values; read-out: Dissociation Constant (target ion) Kd (Zn^2+). The method, then:
(§1) The fluorescence response of a selected compound of the invention as a function of ion concentration was determined by dissolving a sample of the pure compound in 3 mL of each of two solutions: solution 1 (“high”) consists of 200 mM NaCl (or other appropriate ion) and 10 mM MOPS buffer at pH 7.05; solution 2 (“zero”) consists of 10 mM MOPS buffer at pH 7.05 in deionized water. […]. A least-squares fit was used to arrive at the concentration where the selected indicator was maximally sensitive to changes in Na^+ concentration. This corresponded to the dissociation constant of that indicator for Na^+ and was expressed as a concentration.

For a further test, the system named is Jurkat cells. Nature of the test: Calibration of sodium indicator fluorescence response in cells (flow cytometry). As to conditions: 2 μM gramicidin, extracellular Na+ 0-145 mM, excitation 488 nm; for Intracellular fluorescence response to increasing intracellular Na^+ concentration: Jurkat cells, 5 μM Compound 25 or 10 μM Compound 87. It is filed as cell-based. The method, then: Jurkat cells were loaded with a 5 μM solution of either Compound 25 (Example 20), or commercially available SODIUM GREEN tetraacetate indicator (Molecular Probes, Inc., Eugene, Oreg.) and 10 μM for Compound 87 (Example 80) for 30 minutes at 37° C. The use of PLURONIC dispersing agent helped dissolve the selected indicator. Intracellular sodium concentrations were then established by varying the sodium concentration of the extracellular buffer in the presence of 2 μM gramicidin (a sodium-pore forming antibiotic). The extracellular buffer was set at 0 mM, 10 mM, 20 mM, 50 mM, 100 mM, and 145 mM, respectively. Intracellular fluorescence response of the selected indicators was measured using a FACSCAN flow cytometer and associated software, with fluorescence excitation at 488 nm.

The nature of test [2]: Indicator fluorescence response titration, dissociation constant for Na+. Format: binding. The method, then:
as §1
(§2) This methodology was repeated for K+, Li+ and Tb+ to obtain emission spectra and to calculate the Kd values. See, Table 2 and FIG. 4
For visible wavelength probes such as Compound 22 (Example 17), Compound 27 (Example 22) and Compound 86 (Example 79) the indicator's fluorescence emission was typically scanned from 450–650 nm while the sample was excited at the absorption maximum wavelength. For UV-excitable ratiometric probes such as Compound 51 (Example 46), the excitation wavelengths of the dye in solution 2 were scanned from 260 to 450 nm while monitoring constant fluorescence emission at 510 nm (as in FIG. 1). […]

Test [3] in a line: Indicator fluorescence response titration, dissociation constant for Ca2+. It is filed as binding. As to conditions: Table 1, Formula (I) compounds, read-out: Dissociation Constant (target ion) Kd (Ca^2+). The method, then:
as §1

Test [4] is described as follows: Indicator fluorescence response titration, dissociation constant for K+. It is filed as binding. The method, then: The fluorescence response of a selected compound of the invention as a function of ion concentration was determined by dissolving a sample of the pure compound in 3 mL of each of two solutions: solution 1 (“high”) consists of 200 mM NaCl (or other appropriate ion) and 10 mM MOPS buffer at pH 7.05; solution 2 (“zero”) consists of 10 mM MOPS buffer at pH 7.05 in deionized water. A series of curves are generated by cross dilution between the two solutions to arrive at intermediate concentrations of Na+, K+, Li+ and Tb+. The emission of a selected indicator in solution 2 was scanned and then was repeated to cover the entire range from zero to 200 mM Na^+. For example, the fluorescence emission of the chosen indicator was scanned while the sample was excited at that indicator's absorption maximum wavelength, and then 1/100 of the sample was removed and replaced with 1/100 of solution 1 to arrive at a Na^+ concentration of 2 mM. This dilution was repeated to cover the entire range from zero to […] Na^+ and the resulting emission intensities were plotted versus the ion concentrations. A least-squares fit was used to arrive at the concentration where the selected indicator was maximally sensitive to changes in Na^+ concentration. This corresponded to the dissociation constant of that indicator for Na^+ and was expressed as a concentration.
as §2
(§3) For visible wavelength probes such as Compound 22 (Example 17), Compound 27 (Example 22) and Compound 86 (Example 79) the indicator's fluorescence emission was typically scanned from 450–650 nm while the sample was excited at the absorption maximum wavelength. For UV-excitable ratiometric probes such as Compound 51 (Example 46), the excitation wavelengths of the dye in solution 2 were scanned from 260 to 450 nm while monitoring constant fluorescence emission at 510 nm (as in FIG. 1).

The nature of test [5]: Indicator fluorescence response titration, dissociation constant for Li+. It is filed as binding. As to conditions: Table 2, Formula (II) compounds, in solution. The procedure: as §1, §2, §3
A short description of test [6]: Indicator fluorescence response titration, dissociation constant for Rb+. It is filed as binding. As to conditions: Table 2, Formula (II) compounds, in solution. The method, then: as §1, §2, §3
The mark [7] stands for this setting: Table 2, Formula (II) compounds, in solution.
Where [8] appears, read: Table 2, Formula (II) compounds, in solution, 10 mM MOPS pH 7.05, read-out: Dissociation constant Kd (Na^+).
Setting [9] is: Table 1, Formula (I) compounds, approximate values, read-out: Dissociation Constant (target ion) Kd (Na^+).

For orientation: Kd means the constant that tells how readily two partners part at equilibrium. As for `Cc1ccc2c(c1)OCCOc1cc(-c3c4cc(F)c(=O)cc-4oc4cc(O)c(F)cc34)ccc1N(CC(N)=O)CCOCCN2CC(N)=O`, the dissociation constant (Kd) in test [1] was ~0.6 mM.
As to `COC(=O)OCOC(=O)CN1CCOCCN(CC(=O)OCOC(C)=O)c2ccc(C)cc2OCCOc2cc(C3=C4C=C(F)C(O)C=C4Oc4cc(OCOC(C)=O)c(F)cc43)ccc21` (centres unmarked) [Compound 25], in the test on Jurkat cells (Jurkat cells loaded with 5 μM for 30 minutes at 37° C., FIG. 3), the “Intracellular fluorescence intensity compared with SODIUM GREEN indicator” value was “stronger fluorescence intensity than SODIUM GREEN sodium indicator; also recorded: substantially brighter intracellular fluorescence intensity than the SODIUM GREEN indicator”. In addition, the “Intracellular fluorescence response to increasing intracellular Na^+ concentration” value in the test on Jurkat cells was “consistent increase in fluorescence intensity”.
For `O=C([O-])CN1CCOCCOCCOCCOc2cc(-c3c4cc(F)c(=O)cc-4oc4cc(O)c(F)cc34)ccc21.[K+]` [Compound 127], the “Response to complexation (R = F/F0), R (Na^+)” value (“Response … (Na^+)” below) in test [2] (setting [7]) came out at 3.6. Moreover, the Kd in test [2] (setting [8]) came out at 20 mM.
As for `COC(=O)CN1CCOCCN(CC(=O)OC)c2cc(OCC(=O)O)c(-c3cc4ccc(C(=O)OC)cc4[nH]3)cc2OCCOc2cc(C)ccc21`, the Kd in test [2] (setting [9]) is ~52 mM.
As for `COC(=O)c1ccc2cc(-c3ccc4c(c3)OCCOCCOCCOCCN4CCN(C)C)[nH]c2c1` [Compound 126], in test [2] (setting [7]), the “Response … (Na^+)” value is −1.2.
Turning to `Cc1ccc2c(c1)OCCOc1cc(C3=c4cc5c6c(c4Oc4c3cc3c7c4CCCN7CCC3)CCC[N+]=6CCC5)ccc1N(CC(=O)O)CCOCCN2CC(=O)[O-]`, the dissociation constant (Kd) in test [1] is ~0.008 mM; in test [3] (approximate values) it was ~0.007 mM.
As to `Cc1ccc2c(c1)OCCOc1cc(-c3c4ccc(=[N+](C)C)cc-4oc4cc(N(C)C)ccc34)ccc1N(CC(N)=O)CCOCCN2CC(N)=O`, the Kd in test [1] is ~0.65 mM.
In the case of `COC(=O)CN1CCOCCN(CC(=O)OC)c2cc(OCC(=O)NC(CC(=O)O)C(=O)[O-])c(-c3c4ccc(=[N+](C)C)cc-4oc4cc(N(C)C)ccc34)cc2OCCOc2cc(C)ccc21` (centres unmarked), the Kd in test [2] (setting [9]) was ~85 mM.
Still for that read-out and setting: the same measure for `COC(=O)CN1CCOCCN(CC(=O)OC)c2ccc(-c3c4cc(F)c(=O)cc-4oc4cc(O)c(F)cc34)cc2OCCOc2cc(C)ccc21`: ~60 mM.
Take `Cc1ccc2c(c1)OCCOc1cc(-c3c4ccc(=[N+](C)C)cc-4oc4cc(N(C)C)ccc34)c(OCC(=O)O)cc1N(CC(=O)O)CCOCCN2CC(=O)O`: the figures for the dissociation constant (Kd) in test [2] (setting [9]) and in test [1] were ~70 mM and ~0.0001 mM, respectively.
In the case of `COC(=O)CN1CCOCCN(CC(=O)OC)c2ccc(-c3cc4ccc(C(=O)OC)cc4[nH]3)cc2OCCOc2cc(C)ccc21`, the dissociation constant (Kd) is ~30 mM in test [2] (setting [9]) and ~115 nM in test [4] (Table 1, Formula (I) compounds, approximate value printed in nM, read-out: Dissociation Constant (target ion) Kd (K^+)).
For the molecule `Cc1ccc2c(c1)OCCOc1cc3cc(-c4ncc(C(=O)O)o4)oc3cc1N(CC(=O)O)CCOCCN2CC(=O)O`, in test [3] (approximate value), the Kd was ~0.0004 mM.
As to `COCCN1CCOCCOCCOCCOc2cc(-c3cc4ccc(C(=O)OC)cc4[nH]3)ccc21` [Compound 120], the “Response … (Na^+)” value in test [2] (setting [7]) was determined as 2. For the same molecule, the Kd in test [2] (setting [8]) stood at 89 mM.
On to `Cc1ccc2c(c1)OCCOc1cc(-c3c4cc(F)c(=O)cc-4oc4cc(O)c(F)cc34)ccc1N(CC(=O)O)CCOCCN2CC(=O)O`, for which the Kd in test [2] (setting [9]) is ~36 mM; in test [1] it was ~0.0003 mM; in test [3] (approximate values) it was ~0.005 mM.
`COC(=O)CN1CCOCCN(CC(=O)OC)c2ccc(-c3c4ccc(=[N+](C)C)cc-4oc4cc(N(C)C)ccc34)cc2OCCOc2cc(C)ccc21`: the Kd in test [2] (setting [9]) is ~95 mM.
As to `COCCN1CCOCCOCCOCCOc2cc(-c3c4cc(F)c(=O)cc-4oc4cc(O)c(F)cc34)ccc21` [Compound 115], the “Response … (Na^+)” value in test [2] (setting [7]) is 5.9. Besides, the Kd in test [2] (setting [8]) is 78.8 mM. In addition, the “Response to complexation (R = F/F0), R (K^+)” value in test [4] (setting [7]) turned out to be 2.8.
For the molecule `COC(=O)CN1CCOCCN(CC(=O)OC)c2cc(OCC(=O)[O-])c(-c3c4ccc(=[N+](C)C)cc-4oc4cc(N(C)C)ccc34)cc2OCCOc2cc(C)ccc21`, the dissociation constant Kd in test [2] (setting [9]) is ~92 mM.
On to `COC(=O)CN1CCOCCOCCOCCOc2cc(-c3c4cc(F)c(=O)cc-4oc4cc(O)c(F)cc34)ccc21` [Compound 86], for which the “Response … (Na^+)” value in test [2] (setting [7]) is 28.5. Moreover, the Kd in test [2] (setting [8]) worked out at 82 mM. Further, in test [4] (setting [7]), the “Response to complexation (R = F/F0), R (K^+)” value stood at 6.9. The “Response to complexation (R = F/F0), R (Li^+)” value in test [5] amounted to 6.8. Besides, in test [6], the “Response to complexation (R = F/F0), R (Rb^+)” value stood at 2.7.
With `COC(=O)CN1CCOCCOCCOCCOc2cc(-c3cc4ccc(C(=O)OC)cc4[nH]3)ccc21` [Compound 93], the “Response … (Na^+)” value in test [2] (setting [7]) turned out to be 25. In addition, in test [2] (setting [8]), the Kd was 89 mM. Besides, the “Dissociation constant Kd (K^+)” value in test [4] (Table 2, Formula (II) compounds, in solution, 10 mM MOPS pH 7.05) was “Kd (K^+) = no sensitivity”.
Take `CCCCCCCCCCCCCCCCCCNC(=O)COc1cc2c(cc1-c1c3ccc(=[N+](C)C)cc-3oc3cc(N(C)C)ccc13)OCCOc1cc(C)ccc1N(CC(=O)OC)CCOCCN2CC(=O)OC`: the Kd in test [2] (setting [9]) is ~14 mM.
In the case of `COC(=O)CN1CCOCCOCCOCCOc2cc(-c3c4cc(F)c(=O)cc-4oc4cc(OCOC(C)=O)c(F)cc34)ccc21` [Compound 87], the “Intracellular fluorescence response to increasing intracellular Na^+ concentration” value in the test on Jurkat cells is listed as “increased fluorescent signal with increasing concentrations of sodium ions”.
For the molecule `Cc1ccc2c(c1)OCCOc1cc(-c3c4ccc(=[N+](C)C)cc-4oc4cc(N(C)C)ccc34)ccc1N(CC(=O)O)CCOCCN2CC(=O)[O-]`, the equilibrium dissociation constant (Kd) is ~38 mM in test [2] (setting [9]), ~0.0003 mM in test [1] and ~0.004 mM in test [3] (approximate values).
As to `COC(=O)CN1CCOCCN(CC(=O)OC)c2cc3oc(-c4ncc(C(=O)O)o4)cc3cc2OCCOc2cc(C)ccc21`, in test [2] (setting [9]), the Kd is ~52 mM.
